Measured values as given in patent publication US20210393588A1, “READY TO USE I[…] OF BR[…] SALT THEREOF” (Zenvision Pharma LLP, priority 2018, published 2021).
Read-outs that look alike come from different tables or passages of the source.

Assays:
[1] = Storage stability of aqueous solutions of Brivaracetam; format: physicochemical; details: aqueous solution
Text: Also degradation products in solution are formed due to oxidation, pH ranges.

[2] = cited from earlier work

CCC[C@@H]1CC(=O)N([C@@H](CC)C(N)=O)C1 [Brivaracetam, (2S)-2-[(4R)-2-oxo-4-propyltetrahydro-1H-pyrrol-1-yl]butanamide]
Stability during storage [1]: partially unstable
Solubility ([2]; acetone): freely soluble
Solubility ([2]; acetonitrile): freely soluble
Solubility ([2]; buffer (pH 1.2, 4.5, and 7.4)): very soluble
Solubility ([2]; ethanol): very soluble
Solubility ([2]; glacial acetic acid): very soluble
Solubility ([2]; methanol): very soluble
Solubility ([2]; n-hexane): very slightly soluble
Solubility ([2]; toluene): soluble
Solubility ([2]; water): very soluble
